According to ChEMBL document CHEMBL1201862, “PubChem BioAssay data set” (2004):
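Briefly, cells in 96-well plates were exposed to five compound concentrations for 48 h, and endpoints were estimated by linear interpolation. GI50 = concentration required for 50% inhibition of growth.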 Activity calls are given as the source filed them. Cut-off read from the data, not from the text of the source: active = GI50 up to about 1.1 µM and inactive = higher.

Assays:
Assay in all cases: DTP human tumour cell line panel, 48 h
CAKI-1 = test system: CAKI-1
COLO 205 = test system: COLO 205
EKVX = test system: EKVX
HCT-116 = test system: HCT-116
HCT-15 = test system: HCT-15
IGROV-1 = test system: IGROV-1
KM12 = test system: KM12
NCI-H460 = test system: NCI-H460
OVCAR-3 = test system: OVCAR-3
OVCAR-5 = test system: OVCAR-5
OVCAR-8 = test system: OVCAR-8
SK-MEL-5 = test system: SK-MEL-5
SK-OV-3 = test system: SK-OV-3
UACC-257 = test system: UACC-257
UACC-62 = test system: UACC-62
SF-268 = test system: SF-268
SR = test system: SR
TK-10 = test system: TK-10
UO-31 = test system: UO-31
786-0 = test system: 786-0

Measured: GI50

CCCSc1nc(COC(=O)NC)c(COC(=O)NC)n1C
> 83 µM: HCT-15
inactive: CAKI-1 48.1 µM | COLO 205 > 100 µM | EKVX > 100 µM | HCT-116 > 100 µM | IGROV-1 > 100 µM | KM12 > 100 µM | NCI-H460 54.7 µM | OVCAR-3 > 100 µM | OVCAR-5 > 100 µM | OVCAR-8 > 100 µM | SK-MEL-5 > 100 µM | SK-OV-3 > 100 µM | UACC-257 > 100 µM | UACC-62 > 100 µM

Cc1cc(O)nc(NN2C(Cl)C(=O)C2c2cccc([N+](=O)[O-])c2)n1 (stereo not drawn)
15.1 µM: HCT-15
inactive: COLO 205 22.7 µM | EKVX 63.4 µM | HCT-116 19.7 µM | IGROV-1 > 10 µM | KM12 25.9 µM | NCI-H460 26.3 µM | OVCAR-3 14.8 µM | OVCAR-5 > 100 µM | OVCAR-8 34.8 µM | SF-268 35.2 µM | SK-MEL-5 17.5 µM | SR 16.9 µM | TK-10 38.3 µM | UACC-257 29 µM | UACC-62 19.4 µM | UO-31 36.6 µM

C/C=C/C(C#N)O[Si](C)(C)C (stereo not drawn)
inactive: 786-0 > 100 µM | CAKI-1 > 100 µM | COLO 205 > 100 µM | EKVX > 100 µM | HCT-116 > 100 µM | IGROV-1 > 100 µM | KM12 > 100 µM | NCI-H460 > 100 µM | OVCAR-3 > 100 µM | OVCAR-5 > 100 µM | OVCAR-8 > 100 µM | SF-268 > 100 µM | SK-MEL-5 > 100 µM | SK-OV-3 > 100 µM | TK-10 > 100 µM | UACC-257 > 100 µM | UACC-62 > 100 µM | UO-31 > 100 µM
> 100 µM: HCT-15

Cc1cc(S(=O)(=O)Nc2nncn2-c2ccc(Cl)cc2)c(S)cc1Cl
> 10 µM: HCT-15
inactive: 786-0 > 10 µM | CAKI-1 > 10 µM | COLO 205 > 10 µM | EKVX > 10 µM | HCT-116 > 10 µM | IGROV-1 > 10 µM | KM12 > 10 µM | NCI-H460 > 10 µM | OVCAR-3 > 10 µM | OVCAR-5 > 10 µM | OVCAR-8 > 10 µM | SF-268 > 10 µM | SK-MEL-5 > 10 µM | SK-OV-3 > 10 µM | TK-10 > 10 µM | UACC-257 > 10 µM | UACC-62 > 10 µM

CC1(C)C2CCC3(OCCO3)C1C1OC12 (stereo not drawn)
> 100 µM: HCT-15
inactive: 786-0 > 100 µM | CAKI-1 44.3 µM | COLO 205 > 100 µM | EKVX > 100 µM | HCT-116 > 100 µM | KM12 > 100 µM | NCI-H460 > 100 µM | OVCAR-3 > 100 µM | OVCAR-5 > 100 µM | OVCAR-8 > 100 µM | SF-268 > 100 µM | SK-MEL-5 > 100 µM | SK-OV-3 > 100 µM | TK-10 > 100 µM | UACC-257 > 100 µM | UO-31 > 100 µM

COc1ccc(CCC2NCCc3cc(OC)c(OC)cc32)cc1 (stereo not drawn)
> 100 µM: HCT-15
inactive: 786-0 > 100 µM | CAKI-1 > 100 µM | EKVX > 100 µM | HCT-116 > 100 µM | KM12 > 100 µM | NCI-H460 > 100 µM | OVCAR-3 > 100 µM | OVCAR-5 > 100 µM | OVCAR-8 > 100 µM | SF-268 > 100 µM | SK-MEL-5 > 100 µM | TK-10 > 100 µM | UACC-257 > 100 µM | UO-31 88.1 µM

N#CN=C(N(Cc1ccccc1)Cc1ccccc1)N(Cc1ccccc1)Cc1ccccc1
6.37 µM: HCT-15
inactive: CAKI-1 11.6 µM | COLO 205 11.7 µM | EKVX 7.11 µM | HCT-116 3.51 µM | IGROV-1 3.48 µM | KM12 11.9 µM | NCI-H460 3.88 µM | OVCAR-3 10.9 µM | OVCAR-5 45.2 µM | OVCAR-8 6.7 µM | SF-268 > 100 µM | SK-OV-3 21.8 µM | UACC-257 8.47 µM | UACC-62 6.32 µM | UO-31 5.64 µM

O=C1/C(=C/c2ccccc2)CN(C(=O)C(Cl)(Cl)Cl)C/C1=C\c1ccccc1
active: HCT-116 0.356 µM
1.68 µM: HCT-15
inactive: 786-0 2.89 µM | COLO 205 2.25 µM | EKVX 9.23 µM | IGROV-1 2.06 µM | KM12 1.29 µM | NCI-H460 2.08 µM | OVCAR-3 2.86 µM | OVCAR-5 2.51 µM | OVCAR-8 1.73 µM | SF-268 3.33 µM | SK-MEL-5 1.15 µM | SR 1.85 µM | TK-10 2.57 µM | UACC-257 1.58 µM | UACC-62 1.68 µM | UO-31 2.59 µM

Cc1ccc(-c2nnc3s/c(=C\c4ccc(N(C)C)cc4)c(=O)n23)cc1
inactive: 786-0 > 100 µM | CAKI-1 > 100 µM | COLO 205 > 100 µM | EKVX > 100 µM | HCT-116 > 100 µM | IGROV-1 > 100 µM | KM12 > 100 µM | NCI-H460 > 100 µM | OVCAR-3 > 100 µM | OVCAR-5 > 100 µM | OVCAR-8 > 100 µM | SF-268 > 100 µM | SK-MEL-5 > 100 µM | SK-OV-3 > 100 µM | TK-10 > 100 µM | UACC-257 11.7 µM | UACC-62 > 100 µM | UO-31 > 100 µM

Cc1c2c(n(CCN(C)C)c1C)NN=C(C#N)S2(=O)=O
inactive: 786-0 > 100 µM | COLO 205 > 100 µM | EKVX > 100 µM | HCT-116 > 100 µM | IGROV-1 > 100 µM | KM12 > 100 µM | NCI-H460 > 100 µM | OVCAR-3 > 100 µM | OVCAR-5 > 100 µM | OVCAR-8 > 100 µM | SF-268 > 100 µM | SK-OV-3 > 100 µM | TK-10 > 100 µM | UACC-257 > 100 µM | UACC-62 > 100 µM | UO-31 > 100 µM
> 100 µM: HCT-15

CC#C[C@@]1(O)CCCC[C@@H]1O
inactive: 786-0 > 100 µM | COLO 205 > 100 µM | EKVX > 100 µM | HCT-116 > 100 µM | IGROV-1 > 100 µM | KM12 > 100 µM | NCI-H460 > 100 µM | OVCAR-3 > 100 µM | OVCAR-8 > 100 µM | SF-268 > 100 µM | SK-MEL-5 > 100 µM | SK-OV-3 > 100 µM | TK-10 > 100 µM | UACC-257 > 100 µM | UACC-62 > 100 µM | UO-31 > 100 µM
> 100 µM: HCT-15

CC1(C)OCC[C@@H]1[Si](C)(C)C
32.4 µM: HCT-15
inactive: 786-0 > 100 µM | COLO 205 > 100 µM | EKVX 26.2 µM | HCT-116 92.7 µM | IGROV-1 > 100 µM | KM12 > 100 µM | NCI-H460 > 100 µM | OVCAR-3 71.9 µM | OVCAR-5 > 100 µM | OVCAR-8 > 100 µM | SF-268 36.2 µM | SK-MEL-5 26.9 µM | SK-OV-3 > 100 µM | TK-10 73.5 µM | UACC-257 > 100 µM | UACC-62 24.5 µM | UO-31 42.9 µM

CN(/N=C/c1cccc2cccnc12)c1ccc([N+](=O)[O-])cc1[N+](=O)[O-]
inactive: 786-0 13.3 µM | CAKI-1 24.4 µM | COLO 205 86.3 µM | EKVX 45.8 µM | HCT-116 35.1 µM | IGROV-1 24.5 µM | KM12 > 100 µM | NCI-H460 46 µM | OVCAR-3 16.4 µM | OVCAR-5 70.1 µM | OVCAR-8 32.7 µM | SF-268 18.5 µM | SK-MEL-5 52.5 µM | SK-OV-3 20.6 µM | TK-10 29 µM | UACC-257 82 µM | UACC-62 25.1 µM | UO-31 37.3 µM
63 µM: HCT-15

C/C(=C/c1c(C)[nH]c(=O)[nH]c1=O)C(=O)O
> 1370 µM: HCT-15
inactive: CAKI-1 > 1370 µM | COLO 205 > 1370 µM | EKVX 1290 µM | HCT-116 > 1370 µM | IGROV-1 > 1370 µM | KM12 > 1370 µM | NCI-H460 > 1370 µM | OVCAR-3 > 1370 µM | OVCAR-5 > 1260 µM | SF-268 > 1370 µM | SK-MEL-5 > 1370 µM | SK-OV-3 > 1370 µM | UACC-257 > 1370 µM | UACC-62 > 1370 µM | UO-31 > 1370 µM

O=C1C=C(Br)c2c(-c3ccccc3)oc3cccc1c23
> 45.7 µM: HCT-15
inactive: 786-0 51.8 µM | CAKI-1 > 76.9 µM | COLO 205 > 63.1 µM | EKVX 25.4 µM | HCT-116 25.2 µM | IGROV-1 32.3 µM | KM12 > 53 µM | NCI-H460 37.8 µM | OVCAR-3 > 57.1 µM | OVCAR-5 > 100 µM | OVCAR-8 58.2 µM | SF-268 20.2 µM | SK-MEL-5 54.3 µM | SK-OV-3 54.1 µM | TK-10 38.1 µM | UACC-257 > 100 µM | UACC-62 38.1 µM | UO-31 > 61.2 µM

COC1CC(=O)C2C(=O)N(c3ccccc3)C(=O)C23C(C(=O)c2ccccc2)=C(C)NC13O (stereo not drawn)
8.49 µM: HCT-15
inactive: 786-0 2.12 µM | CAKI-1 4.6 µM | COLO 205 12.3 µM | EKVX 17.4 µM | HCT-116 9.2 µM | IGROV-1 10.4 µM | KM12 18 µM | NCI-H460 21.7 µM | OVCAR-3 2.12 µM | OVCAR-5 18.9 µM | OVCAR-8 21.1 µM | SF-268 3.84 µM | SK-MEL-5 18.6 µM | SK-OV-3 19.9 µM | TK-10 6.32 µM | UACC-257 22.9 µM | UACC-62 16.4 µM | UO-31 11.4 µM
